From ChEMBL document CHEMBL1139602, “Biological evaluation of Tyr6 and Ser7 modified drosocin analogues” (2005)
In brackets after ≈: the same amount, converted by molar mass. Square brackets hold non-standard residues; d marks the D form. Peptide text beside a SMILES is read from it. Ava = NCCCCC(=O)O; GABA = NCCCC(=O)O; βAla = NCCC(=O)O

Assays:
Cell line = experiment: Percent of intact peptide after 8 hr of digestion in 25% human serum; assay type: functional
Escherichia coli = experiment: Minimum inhibitory concentration against Escherichia coli ATCC 11775 strain; assay type: functional

Work on CC[C@H](C)[C@H](NC(=O)[C@@H]1CCCN1C(=O)[C@H](CCCN=C(N)N)NC(=O)[C@@H]1CCCN1C(=O)[C@H](Cc1c[nH]cn1)NC(=O)[C@H](CO)NC(=O)[C@@H](NC(=O)[C@@H]1CCCN1C(=O)[C@H](CCCN=C(N)N)NC(=O)[C@@H]1CCCN1C(=O)[C@H](CO)NC(=O)[C@@H](Cc1ccc(O)cc1)NC(=O)[C@@H]1CCCN1C(=O)[C@H](CCCN=C(N)N)NC(=O)[C@@H]1CCCN1C(=O)[C@H](CCCCN)NC(=O)CN)[C@@H](C)O)C(=O)N[C@@H](CCCN=C(N)N)C(=O)N[C@H](C=O)C(C)C yielded an Intact (Cell line) of 16% and an MIC (Escherichia coli) of 6.3 µM (≈ 13.8 µg/mL).

With CC[C@H](C)[C@H](NC(=O)[C@@H]1CCCN1C(=O)[C@H](CCCN=C(N)N)NC(=O)[C@@H]1CCCN1C(=O)[C@H](Cc1c[nH]cn1)NC(=O)[C@H](CO)NC(=O)[C@@H](NC(=O)[C@@H]1CCCN1C(=O)[C@H](CCCN=C(N)N)NC(=O)[C@@H]1CCCN1C(=O)[C@H](CO)NC(=O)C[C@@H](Cc1ccc(O)cc1)NC(=O)[C@@H]1CCCN1C(=O)[C@H](CCCN=C(N)N)NC(=O)[C@@H]1CCCN1C(=O)[C@H](CCCCN)NC(=O)CN)[C@@H](C)O)C(=O)N[C@@H](CCCN=C(N)N)C(=O)N[C@H](C=O)C(C)C the Intact (Cell line) was 2% and the MIC (Escherichia coli) was 3.1 µM (≈ 6.81 µg/mL).

CC[C@H](C)[C@H](NC(=O)[C@@H]1CCCN1C(=O)[C@H](CCCN=C(N)N)NC(=O)[C@@H]1CCCN1C(=O)[C@H](Cc1c[nH]cn1)NC(=O)[C@H](CO)NC(=O)[C@@H](NC(=O)[C@@H]1CCCN1C(=O)[C@H](CCCN=C(N)N)NC(=O)[C@@H]1CCCN1C(=O)[C@@H](CO)NC(=O)[C@@H](Cc1ccc(O)cc1)NC(=O)[C@@H]1CCCN1C(=O)[C@H](CCCN=C(N)N)NC(=O)[C@@H]1CCCN1C(=O)[C@H](CCCCN)NC(=O)CN)[C@@H](C)O)C(=O)N[C@@H](CCCN=C(N)N)C(=O)N[C@H](C=O)C(C)C showed an Intact (Cell line) of 17% and an MIC (Escherichia coli) of 25 µM (≈ 54.6 µg/mL).

With CC[C@H](C)[C@H](NC(=O)CNC(=O)[C@H](Cc1ccc(O)cc1)NC(=O)[C@H](CC(=O)O)NC(=O)[C@@H](NC(=O)[C@H](CO)NC(=O)CNC(=O)[C@H](CC(=O)O)NC(=O)[C@@H](NC(=O)[C@@H](N)CC(N)=O)[C@@H](C)O)[C@@H](C)O)C(=O)N[C@@H](CC(C)C)C(=O)N[C@@H](CCC(N)=O)C(=O)N[C@H](C(=O)N[C@@H](CC(N)=O)C(=O)N[C@@H](CO)C(=O)N[C@H](C=O)CCCN=C(N)N)[C@@H](C)CC the MIC (Escherichia coli) was > 100 µM.

CC[C@H](C)[C@H](NC(=O)[C@@H]1CCCN1C(=O)[C@H](CCCN=C(N)N)NC(=O)[C@@H]1CCCN1C(=O)[C@H](Cc1c[nH]cn1)NC(=O)[C@H](CO)NC(=O)[C@@H](NC(=O)[C@@H]1CCCN1C(=O)[C@H](CCCN=C(N)N)NC(=O)[C@@H]1CCCN1C(=O)[C@@H](CO)NC(=O)[C@H](Cc1ccc(O)cc1)NC(=O)[C@@H]1CCCN1C(=O)[C@H](CCCN=C(N)N)NC(=O)[C@@H]1CCCN1C(=O)[C@H](CCCCN)NC(=O)CN)[C@@H](C)O)C(=O)N[C@@H](CCCN=C(N)N)C(=O)N[C@H](C=O)C(C)C gave an Intact (Cell line) of 1% and an MIC (Escherichia coli) of 3.1 µM (≈ 6.77 µg/mL).

CC[C@H](C)[C@H](NC(=O)[C@@H]1CCCN1C(=O)[C@H](CCCN=C(N)N)NC(=O)[C@@H]1CCCN1C(=O)[C@H](Cc1c[nH]cn1)NC(=O)[C@H](CO)NC(=O)[C@@H](NC(=O)[C@@H]1CCCN1C(=O)[C@H](CCCN=C(N)N)NC(=O)[C@@H]1CCCN1C(=O)C[C@@H](CO)NC(=O)[C@H](Cc1ccc(O)cc1)NC(=O)[C@@H]1CCCN1C(=O)[C@H](CCCN=C(N)N)NC(=O)[C@@H]1CCCN1C(=O)[C@H](CCCCN)NC(=O)CN)[C@@H](C)O)C(=O)N[C@@H](CCCN=C(N)N)C(=O)N[C@H](C=O)C(C)C was tested, and the Intact (Cell line) was 31% and the MIC (Escherichia coli) was 3.1 µM (≈ 6.81 µg/mL).

CC[C@H](C)[C@H](NC(=O)[C@@H]1CCCN1C(=O)[C@H](CCCN=C(N)N)NC(=O)[C@@H]1CCCN1C(=O)[C@H](Cc1c[nH]cn1)NC(=O)[C@H](CO)NC(=O)[C@@H](NC(=O)[C@@H]1CCCN1C(=O)[C@H](CCCN=C(N)N)NC(=O)[C@@H]1CCCN1C(=O)[C@H](CO)NC(=O)[C@H](Cc1ccccc1)NC(=O)[C@@H]1CCCN1C(=O)[C@H](CCCN=C(N)N)NC(=O)[C@@H]1CCCN1C(=O)[C@H](CCCCN)NC(=O)CN)[C@@H](C)O)C(=O)N[C@@H](CCCN=C(N)N)C(=O)N[C@H](C=O)C(C)C (H-GKPRPFSPRPTSHPRPIRV-aldehyde) gave an Intact (Cell line) of 19% and an MIC (Escherichia coli) of 3.1 µM (≈ 6.72 µg/mL).

For CC[C@H](C)[C@H](NC(=O)[C@@H]1CCCN1C(=O)[C@H](CCCN=C(N)N)NC(=O)[C@@H]1CCCN1C(=O)[C@H](Cc1c[nH]cn1)NC(=O)[C@H](CO)NC(=O)[C@@H](NC(=O)[C@@H]1CCCN1C(=O)[C@H](CCCN=C(N)N)NC(=O)[C@@H]1CCCN1C(=O)[C@@H](NC(=O)[C@H](Cc1ccccc1)NC(=O)[C@@H]1CCCN1C(=O)[C@H](CCCN=C(N)N)NC(=O)[C@@H]1CCCN1C(=O)[C@H](CCCCN)NC(=O)CN)[C@@H](C)O)[C@@H](C)O)C(=O)N[C@@H](CCCN=C(N)N)C(=O)N[C@H](C=O)C(C)C (H-GKPRPFTPRPTSHPRPIRV-aldehyde), the Intact (Cell line) was 26% and the MIC (Escherichia coli) was 3.1 µM (≈ 6.76 µg/mL).

In the case of CC[C@H](C)[C@H](NC(=O)[C@@H]1CCCN1C(=O)[C@H](CCCN=C(N)N)NC(=O)[C@@H]1CCCN1C(=O)[C@H](Cc1c[nH]cn1)NC(=O)[C@H](CO)NC(=O)[C@@H](NC(=O)[C@@H]1CCCN1C(=O)[C@H](CCCN=C(N)N)NC(=O)[C@@H]1CCCN1C(=O)[C@H](COC)NC(=O)[C@H](Cc1ccc(O)cc1)NC(=O)[C@@H]1CCCN1C(=O)[C@H](CCCN=C(N)N)NC(=O)[C@@H]1CCCN1C(=O)[C@H](CCCCN)NC(=O)CN)[C@@H](C)O)C(=O)N[C@@H](CCCN=C(N)N)C(=O)N[C@H](C=O)C(C)C (H-GKPRPYS(Me)PRPTSHPRPIRV-aldehyde), the Intact (Cell line) is reported as 11% and the MIC (Escherichia coli) is reported as 25 µM (≈ 54.9 µg/mL).

CC[C@H](C)[C@H](NC(=O)[C@@H]1CCCN1C(=O)[C@H](CCCN=C(N)N)NC(=O)[C@@H]1CCCN1C(=O)[C@H](Cc1c[nH]cn1)NC(=O)[C@H](CO)NC(=O)[C@@H](NC(=O)[C@@H]1CCCN1C(=O)[C@H](CCCN=C(N)N)NC(=O)[C@@H]1CCCN1C(=O)[C@@H](NC(=O)[C@H](Cc1ccc(O)cc1)NC(=O)[C@@H]1CCCN1C(=O)[C@H](CCCN=C(N)N)NC(=O)[C@@H]1CCCN1C(=O)[C@H](CCCCN)NC(=O)CN)[C@@H](C)O)[C@@H](C)O)C(=O)N[C@@H](CCCN=C(N)N)C(=O)N[C@H](C=O)C(C)C (H-GKPRPYTPRPTSHPRPIRV-aldehyde) showed an Intact (Cell line) of 15% and an MIC (Escherichia coli) of 1.6 µM (≈ 3.51 µg/mL).

CC[C@H](C)[C@H](NC(=O)[C@@H]1CCCN1C(=O)[C@H](CCCN=C(N)N)NC(=O)[C@@H]1CCCN1C(=O)[C@H](Cc1c[nH]cn1)NC(=O)[C@H](CO)NC(=O)[C@@H](NC(=O)[C@@H]1CCCN1C(=O)[C@H](CCCN=C(N)N)NC(=O)[C@@H]1CCCN1C(=O)[C@@H](NC(=O)[C@H](Cc1ccc(O)cc1)NC(=O)[C@@H]1CCCN1C(=O)[C@H](CCCN=C(N)N)NC(=O)[C@@H]1CCCN1C(=O)[C@H](CCCCN)NC(=O)CN)C(C)C)[C@@H](C)O)C(=O)N[C@@H](CCCN=C(N)N)C(=O)N[C@H](C=O)C(C)C (H-GKPRPYVPRPTSHPRPIRV-aldehyde) showed an MIC (Escherichia coli) of 12.5 µM (≈ 27.4 µg/mL).

Molecule CC[C@H](C)[C@H](NC(=O)[C@@H]1CCCN1C(=O)[C@H](CCCN=C(N)N)NC(=O)[C@@H]1CCCN1C(=O)[C@H](Cc1c[nH]cn1)NC(=O)[C@H](CO)NC(=O)[C@@H](NC(=O)[C@@H]1CCCN1C(=O)[C@H](CCCN=C(N)N)NC(=O)[C@@H]1CCCN1C(=O)[C@@H](NC(=O)[C@H](Cc1ccc(O)cc1)NC(=O)[C@@H]1CCCN1C(=O)[C@H](CCCN=C(N)N)NC(=O)[C@@H]1CCCN1C(=O)[C@H](CCCCN)NC(=O)CCCCN)[C@@H](C)O)[C@@H](C)O)C(=O)N[C@@H](CCCN=C(N)N)C(=O)N[C@H](C(=O)O)C(C)C (H-[Ava]KPRPYTPRPTSHPRPIRV-OH) has an Intact (Cell line) of 84% and an MIC (Escherichia coli) of 6.3 µM (≈ 14.2 µg/mL).

Molecule CC[C@H](C)[C@H](NC(=O)[C@@H]1CCCN1C(=O)[C@H](CCCN=C(N)N)NC(=O)[C@@H]1CCCN1C(=O)[C@H](Cc1c[nH]cn1)NC(=O)[C@H](CO)NC(=O)[C@@H](NC(=O)[C@@H]1CCCN1C(=O)[C@H](CCCN=C(N)N)NC(=O)[C@@H]1CCCN1C(=O)[C@@H](NC(=O)[C@H](Cc1ccc(O)cc1)NC(=O)[C@@H]1CCCN1C(=O)[C@H](CCCN=C(N)N)NC(=O)[C@@H]1CCCN1C(=O)[C@H](CCCCN)NC(=O)CCCN)C(C)C)[C@@H](C)O)C(=O)N[C@@H](CCCN=C(N)N)C(=O)N[C@H](C=O)C(C)C (H-[GABA]KPRPYVPRPTSHPRPIRV-aldehyde) has an Intact (Cell line) of 76% and an MIC (Escherichia coli) of 6.3 µM (≈ 14 µg/mL).

CC[C@H](C)[C@H](NC(=O)[C@@H]1CCCN1C(=O)[C@H](CCCN=C(N)N)NC(=O)[C@@H]1CCCN1C(=O)[C@H](Cc1c[nH]cn1)NC(=O)[C@H](CO)NC(=O)[C@@H](NC(=O)[C@@H]1CCCN1C(=O)[C@H](CCCN=C(N)N)NC(=O)[C@@H]1CCCN1C(=O)[C@@H](NC(=O)[C@H](Cc1ccc(O)cc1)NC(=O)[C@@H]1CCCN1C(=O)[C@H](CCCN=C(N)N)NC(=O)[C@@H]1CCCN1C(=O)[C@H](CCCCN)NC(=O)CCN)[C@@H](C)O)[C@@H](C)O)C(=O)N[C@@H](CCCN=C(N)N)C(=O)N[C@H](C(=O)O)C(C)C (H-[βAla]KPRPYTPRPTSHPRPIRV-OH) showed an Intact (Cell line) of 87% and an MIC (Escherichia coli) of 3.1 µM (≈ 6.9 µg/mL).

H-GKPRPYSPRPTSHPRPIRV-OH [DROSOCIN] gave an Intact (Cell line) of 3% and an MIC (Escherichia coli) of 6.3 µM.
